What was measured:
[1] = molecular target: T1, Recombinant human carbonic anhydrase IX (Homo sapiens, UniProt Q16790); assay: hCA IX inhibition, 4-nitrophenyl acetate (4-NPA) esterase assay; format: biochemical; conditions: mean ± standard error
T1 construct: purchased Sino Biological Inc, Beijing, China
Experimental: Carbonic anhydrases are able to catalyze the conversion 4-nitrophenyl acetate (4-NPA) to 4-nitrophenol. […] One × Assay buffer is composed of 15 mmol/L 4-(2-hydroxyethyl)-1-piperazineethanesulfonic acid (HEPES) (pH = 7.4), 0.01% tetraethylene glycol monododecyl ether (BRIJ) and 100 mmol/L NaCl. […] Then, 18 μL of enzyme solution was transferred into 384-well assay plates in triplicate. Stock solutions of the inhibitor (10 mmol/L) were prepared using DMSO as solvent, and then diluted 1:3 with DMSO. […] The normalized data were then fit to a sigmoidal dose-response curve using GraphPad Prism 5.0 software, La Jolla, CA, USA to obtain the IC50. Final enzyme concentration was 5 ng/μL.

[2] = test system: CA IX over intracellular CA I; design: method as in PMID 25254302; conditions: cited from earlier work
[3] = test system: CA IX over intracellular CA II; design: method as in PMID 25254302; conditions: cited from earlier work

Structure (SMILES) | melting point | IC50 [1] | selectivity for CA IX over CA I [2] | selectivity for CA IX over CA II [3]
Cc1ccc(S(=O)(=O)NC2C(NC(=S)Nc3ccc(S(N)(=O)=O)cc3)OC(CO)C(O)C2O)cc1 [Compound 7a, N-[4-(Aminosulfonyl)phenyl]-N′-[2′-(4′-methylbenzenesulfonylamino)-2′-deoxy-β-D-glucopyranosyl]thiourea] | 159.5 to 161.2 °C | 21.8 ± 3.18 nM | – | –
Cc1ccccc1S(=O)(=O)N[C@@H]1[C@@H](O)[C@H](O)[C@@H](CO)O[C@H]1NC(=S)Nc1ccc(S(N)(=O)=O)cc1 [Compound 7b, N-[4-(Aminosulfonyl)phenyl]-N′-[2′-(2′-methylbenzenesulfonylamino)-2′-deoxy-β-D-glucopyranosyl]thiourea] | 175.2 to 177.1 °C | 21.9 ± 0.37 nM | – | –
COc1ccc(S(=O)(=O)N[C@@H]2[C@@H](O)[C@H](O)[C@@H](CO)O[C@H]2NC(=S)Nc2ccc(S(N)(=O)=O)cc2)cc1 [Compound 7c, N-[4-(Aminosulfonyl)phenyl]-N′-[2′-(4′-methoxybenzenesulfonylamino)-2′-deoxy-β-D-glucopyranosyl]thiourea] | 165 to 166.3 °C | 23.8 ± 0.51 nM | – | –
NS(=O)(=O)c1ccc(NC(=S)N[C@@H]2O[C@H](CO)[C@@H](O)[C@H](O)[C@H]2NS(=O)(=O)c2ccc(F)cc2)cc1 [Compound 7d, N-[4-(Aminosulfonyl)phenyl]-N′-[2′-(4′-fluorobenzenesulfonylamino)-2′-deoxy-β-D-glucopyranosyl]thiourea] | 178 to 179.6 °C | 25.6 ± 2.15 nM | – | –
NS(=O)(=O)c1ccc(NC(=S)N[C@@H]2O[C@H](CO)[C@@H](O)[C@H](O)[C@H]2NS(=O)(=O)c2cc(F)cc(F)c2)cc1 [Compound 7e, N-[4-(Aminosulfonyl)phenyl]-N′-[2′-(3′,5′-difluorobenzenesulfonylamino)-2′-deoxy-β-D-glucopyranosyl]thiourea] | 164.4 to 165.2 °C | 11.5 ± 0.93 nM | – | –
NS(=O)(=O)c1ccc(NC(=S)NC2OC(CO)C(O)C(O)C2NS(=O)(=O)c2ccc(C(F)(F)F)cc2)cc1 [Compound 7f, N-[4-(Aminosulfonyl)phenyl]-N′-[2′-(4′-trifluoromethylbenzenesulfonylamino)-2′-deoxy-β-D-glucopyranosyl]thiourea] | 164 to 165.4 °C | 10 ± 0.23 nM | – | –
NS(=O)(=O)c1ccc(NC(=S)N[C@@H]2O[C@H](CO)[C@@H](O)[C@H](O)[C@H]2NS(=O)(=O)c2ccc(Cl)cc2)cc1 [Compound 7g, N-[4-(Aminosulfonyl)phenyl]-N′-[2′-(4′-chlorobenzenesulfonylamino)-2′-deoxy-β-D-glucopyranosyl]thiourea] | 167.2 to 168.8 °C | 26.9 ± 0.28 nM | – | –
NS(=O)(=O)c1ccc(NC(=S)N[C@@H]2O[C@H](CO)[C@@H](O)[C@H](O)[C@H]2NS(=O)(=O)c2ccc(Br)cc2)cc1 [Compound 7h, N-[4-(Aminosulfonyl)phenyl]-N′-[2′-(4′-bromobenzenesulfonylamino)-2′-deoxy-β-D-glucopyranosyl]thiourea] | 174.1 to 176 °C | 21.3 ± 1.29 nM | – | –
NS(=O)(=O)c1ccc(NC(=S)N[C@@H]2O[C@H](CO)[C@@H](O)[C@H](O)[C@H]2NS(=O)(=O)c2cccc(Br)c2)cc1 [Compound 7i, N-[4-(Aminosulfonyl)phenyl]-N′-[2′-(3′-bromobenzenesulfonylamino)-2′-deoxy-β-D-glucopyranosyl]thiourea] | 172.9 to 174.7 °C | 12.6 ± 0.96 nM | – | –
NS(=O)(=O)c1ccc(NC(=S)N[C@@H]2O[C@H](CO)[C@@H](O)[C@H](O)[C@H]2NS(=O)(=O)c2ccc([N+](=O)[O-])cc2)cc1 [Compound 7j, N-[4-(Aminosulfonyl)phenyl]-N′-[2′-(4′-nitrobenzenesulfonylamino)-2′-deoxy-β-D-glucopyranosyl]thiourea] | 174.7 to 176 °C | 25.4 ± 3.8 nM | – | –
NS(=O)(=O)c1ccc(NC(=S)N[C@@H]2O[C@H](CO)[C@@H](O)[C@H](O)[C@H]2NS(=O)(=O)c2ccccc2[N+](=O)[O-])cc1 [Compound 7k, N-[4-(Aminosulfonyl)phenyl]-N′-[2′-(2′-nitrobenzenesulfonylamino)-2′-deoxy-β-D-glucopyranosyl]thiourea] | 169.7 to 171.7 °C | 15.6 ± 0.44 nM | – | –
NS(=O)(=O)c1ccc(NC(=S)N[C@@H]2O[C@H](CO)[C@@H](O)[C@H](O)[C@H]2NS(=O)(=O)c2cccc([N+](=O)[O-])c2)cc1 [Compound 7l, N-[4-(Aminosulfonyl)phenyl]-N′-[2′-(3′-nitrobenzenesulfonylamino)-2′-deoxy-β-D-glucopyranosyl]thiourea] | 177.3 to 179.2 °C | 18.9 ± 0.33 nM | – | –
N#Cc1ccc(S(=O)(=O)N[C@@H]2[C@@H](O)[C@H](O)[C@@H](CO)O[C@H]2NC(=S)Nc2ccc(S(N)(=O)=O)cc2)cc1 [Compound 7m, N-[4-(Aminosulfonyl)phenyl]-N′-[2′-(4′-cyanobenzenesulfonylamino)-2′-deoxy-β-D-glucopyranosyl]thiourea] | 169 to 170.6 °C | 21.9 ± 0.49 nM | – | –
NS(=O)(=O)c1ccc(NC(=S)N[C@@H]2O[C@H](CO)[C@@H](O)[C@H](O)[C@H]2NS(=O)(=O)c2ccc3ccccc3c2)cc1 [Compound 7n, N-[4-(Aminosulfonyl)phenyl]-N′-[2′-(naphthalene-2′-sulfonylamino)-2′-deoxy-β-D-glucopyranosyl]thiourea] | 182.7 to 184.6 °C | 24.78 ± 0.05 nM | – | –
CCS(=O)(=O)N[C@@H]1[C@@H](O)[C@H](O)[C@@H](CO)O[C@H]1NC(=S)Nc1ccc(S(N)(=O)=O)cc1 [Compound 7o, N-[4-(Aminosulfonyl)phenyl]-N′-(2′-ethylsulfonylamino-2′-deoxy-β-D-glucopyranosyl)thiourea] | 164.8 to 166.2 °C | 66.9 ± 3.26 nM | – | –
CCCS(=O)(=O)NC1C(NC(=S)Nc2ccc(S(N)(=O)=O)cc2)OC(CO)C(O)C1O [Compound 7p, N-[4-(Aminosulfonyl)phenyl]-N′-(2′-n-propylsulfonylamino-2′-deoxy-β-D-glucopyranosyl)thiourea] | 159.1 to 160.6 °C | 389 ± 27.7 nM | – | –
CN(C)S(=O)(=O)N[C@@H]1[C@@H](O)[C@H](O)[C@@H](CO)O[C@H]1NC(=S)Nc1ccc(S(N)(=O)=O)cc1 [Compound 7q, N-[4-(Aminosulfonyl)phenyl]-N′-[2′-(N′,N′-dimethylsulfonylamino)-2′-deoxy-β-D-glucopyranosyl]thiourea] | 157.4 to 159.4 °C | 72.1 ± 6.15 nM | – | –
NS(=O)(=O)c1ccc(NC(=S)N[C@@H]2O[C@H](CO)[C@@H](O)[C@H](O)[C@H]2NS(=O)(=O)c2cccs2)cc1 [Compound 7r, N-[4-(Aminosulfonyl)phenyl]-N′-[2′-(thiophene-2′-sulfonylamino)-2′-deoxy-β-D-glucopyranosyl]thiourea] | 172.8 to 174 °C | 65.8 ± 0.08 nM | – | –
CC(=O)NC1C(NC(=S)Nc2ccc(S(N)(=O)=O)cc2)OC(COC(C)=O)C(OC(C)=O)C1OC(C)=O [Compound 9a, N-[4-(Aminosulfonyl)phenyl]-N′-(2′-acetylamino-3′,4′,6′-tri-O-acetyl-2′-deoxy-β-D-glucopyranosyl)thiourea] | 141.8 to 142.9 °C | 1290 ± 141 nM | – | –
CC(=O)NC1C(NC(=S)Nc2ccc(S(N)(=O)=O)cc2)OC(CO)C(O)C1O [Compound 9b, N-[4-(Aminosulfonyl)phenyl]-N′-(2′-acetylamino-2′-deoxy-β-D-glucopyranosyl)thiourea] | 151.1 to 152.9 °C | 176 ± 9.45 nM | – | –
NS(=O)(=O)OCCCCCNS(=O)(=O)[C@@H]1O[C@H](CO)[C@@H](O)[C@H](O)[C@H]1O [Compound A] | – | – | 1200 fold | 3200 fold

Source: PMC6154466, “Design, Synthesis, Molecular Docking Analysis, and Carbonic Anhydrase IX Inhibitory Evaluations of Novel N-Substituted-β-D-Glucosamine Derivatives that Incorporate Benzenesulfonamides” (Molecules : A Journal of Synthetic Chemistry and Natural …, 2017)
